Assay results from paper PMC3948331 (Future medicinal chemistry, 2013).

How the values were obtained:
guinea pigs = guinea pigs treated with Bnz; cited from earlier work
S. typhimurium strains = conditions: cited from earlier work
[1] = tested on: T. cruzi, strain Tulahuen C4 amastigotes; assay: In vitro activity against T. cruzi intracellular amastigotes in L6 host cells; assay type: cell-based, Trypanosoma cruzi; conditions: for IC50: Trypanosoma cruzi, TULAHUEN, L6, read-out: T. cruzi IC-50; for Selectivity: IC50 in L6 cells/IC50 in T. cruzi, compounds 9–13
Balb/c mice = assay: Apparent toxicity in treated T. cruzi-infected mice; assay type: in vivo; conditions: 30 mg/kg/day i.p., 5- and 10-day treatment
[2] = tested on: transgenic T. cruzi Y strain expressing firefly luciferase; assay: In vivo anti-T. cruzi fast luminescence assay in infected Balb/c mice; design: species or system Trypanosoma cruzi; conditions: for in vivo antichagasic activity compared with Bnz: 10-day treatment, Bnz 15 mg/kg/day
[3] = Cytotoxicity assessment in the host L6 cells; assay type: cell-based; conditions: rat, L6 cells (rat skeletal myoblasts)
[4] = Microsomal stability screen; assay type: in vitro ADME; conditions: mouse, microsomes, 1 h, 1 µM, pH 7.4
Plasma stability screen = assay type: in vitro ADME, mouse; conditions: 5 µM
[5] = Caco-2 monolayer permeability; conditions: human
in vitro = conditions: human, Caco-2
[6] = logD at pH 6; threshold for high permeability; cited from earlier work
zebrafish embryos = assay: Toxicity studies in zebrafish embryos; conditions: incubation of embryos; data not shown
[7] = i.p., 5–10 days treatment at the doses of Figure 1, more than 80 and up to 100%

For `O=C(Cn1ccnc1[N+](=O)[O-])NCc1ccccc1` [Bnz, benznidazole], the “mutagenic derivatives in serum and urine detectable by the Ames test” value (guinea pigs) is listed as “not metabolized by the mammalian host into stable mutagenic derivatives”, the “concentrations showing significant mutagenicity” value (S. typhimurium strains) is listed as < 62 µg/mL and the IC50 [1] is listed as 1430 nM.
In the case of `Cl.O=[N+]([O-])c1ncn(CCCNCCc2cccc(C(F)(F)F)c2)n1` [Compound 9, [3-(3-nitro-1H-1,2,4-triazol-1-yl)propyl] ({2-[3-(trifluoromethyl)phenyl]ethyl})amine hydrochloride], the “toxicity in treated mice” value (Balb/c mice) is reported as “without any sign of toxicity”, the “drop of parasite index” value ([2]; 30 mg/kg/day i.p., after 5-day treatment) is reported as “about 88%” and the “drop of parasite index” value ([2]; 30 mg/kg/day i.p., after 10-day treatment) is reported as ~85%. For the same molecule, the “drop of parasite index” value [2, 7] was “more than 80%”, the Selectivity [1] was 116 and the IC50 [1] was 775 nM. For the same molecule, the IC50 [3] was 90100 nM.
For `O=[N+]([O-])c1ncn(CCCNc2nc3ccc(Cl)cc3s2)n1` [Compound 10, 6-chloro-N-[3-(3-nitro-1H-1,2,4-triazol-1-yl)propyl]-1,3-benzothiazol-2-amine], the “Mean remaining parent comp (+)NADPH” value [4] was 1.0%, the “Mean remaining parent comp (−)NADPH” value [4] was 108% and the “in vivo antichagasic activity” value ([2]; 10 mg/kg/day i.p., 5- or 10-day treatment) was “failed to demonstrate in vivo antichagasic activity”. The Selectivity [1] was 1725, the IC50 [1] was 59 nM and the “Mean remaining parent comp” value (Plasma stability screen; mouse plasma, 60 min, 37°C) was 87.3%. It also gave an IC50 [3] of 102000 nM.
In the case of `O=[N+]([O-])c1ncn(CCCCNS(=O)(=O)c2ccc(Cl)s2)n1` [Compound 11, 5-chloro-N-[4-(3-nitro-1H-1,2,4-triazol-1-yl)butyl]thiophene-2-sulfonamide], the parasite signal ([2]; 15 mg/kg/day i.p., after 10 days of treatment, greater activity than Bnz) is reported as “no detectable parasite signal”, the “drop of parasite index” value [2, 7] is reported as “more than 80%” and the Selectivity [1] is reported as 277.5. The IC50 [1] was 462 nM and the IC50 [3] was 128000 nM.
In the case of `O=[N+]([O-])c1ncn(CCCCNS(=O)(=O)c2cc(Cl)c(Cl)s2)n1` [Compound 12, 4,5-dichloro-N-[4-(3-nitro-1H-1,2,4-triazol-1-yl)butyl]thiophene-2-sulfonamide], the “in vivo antichagasic activity compared with Bnz” value ([2]; 15 mg/kg/day i.p.) is reported as “failed to perform better than Bnz”, the Selectivity [1] is reported as 261.1 and the IC50 [1] is reported as 373 nM. It also gave an IC50 [3] of 97300 nM.
In the case of `O=C(NCCCCn1cnc([N+](=O)[O-])n1)c1nc2ccccc2s1` [Compound 13, N-[4-(3-nitro-1H-1,2,4-triazol-1-yl)butyl]-1,3-benzothiazole-2-carboxamide], the “in vivo antichagasic activity compared with Bnz” value ([2]; 15 mg/kg/day i.p.) is reported as “failed to perform better than Bnz”, the Selectivity [1] is reported as 364.4 and the IC50 [1] is reported as 422 nM. For the same molecule, the IC50 [3] was 154000 nM.
For `CC(C)[N+](C)(CCOC(=O)C1c2ccccc2Oc2ccccc21)C(C)C` [Propantheline], the “Mean remaining parent comp” value (Plasma stability screen; mouse plasma, 60 min, 37°C) was 30.4%.
In the case of `CNC(=C[N+](=O)[O-])NCCSCc1ccc(CN(C)C)o1` [Ranitidine], the Papp A→B at 2 h, 10 µM [5] is reported as 0.5 ×10⁻⁶ cm/s.
With `CC(=O)CC(c1ccccc1)c1c(O)c2ccccc2oc1=O` (stereo not shown) [Warfarin] the “Mean remaining parent comp (+)NADPH” value [4] was 83.9%, the Papp A→B at 2 h, 10 µM (in vitro) was 44.2 ×10⁻⁶ cm/s and the “Mean remaining parent comp” value (Plasma stability screen; mouse, plasma, 1 h) was 97.8%.
In the case of `CC(CCc1ccccc1)NCC(O)c1ccc(O)c(C(N)=O)c1` (stereo not shown) [labetalol], the logD6 [6] is listed as −0.42.
With `CC1CS(=O)(=O)CCN1/N=C/c1ccc([N+](=O)[O-])o1` (stereo not shown) [nifurtimox] the “effect on zebrafish embryos' development” value (zebrafish embryos) was “weakened heart beat, pericardial oedema or death”.
